Laboratory results published in ChEMBL document CHEMBL6134914, “Novel Bicyclic Heterocycles as MRGPRX2 Antagonists for Treating Inflammatory Diseases” (ACS Med Chem Lett, 2025).

The compounds below were run against T1, Mas-related G-protein coupled receptor member X2 (Homo sapiens, UniProt Q96LB1) (assay: Inhibition of human MRGPRX2 expressed in CHO-K1 cells assessed as Ca2+ release incubated for 30 mins by FLIPR calcium mobilization assay).
T1 sequence (Q96LB1 whole entry): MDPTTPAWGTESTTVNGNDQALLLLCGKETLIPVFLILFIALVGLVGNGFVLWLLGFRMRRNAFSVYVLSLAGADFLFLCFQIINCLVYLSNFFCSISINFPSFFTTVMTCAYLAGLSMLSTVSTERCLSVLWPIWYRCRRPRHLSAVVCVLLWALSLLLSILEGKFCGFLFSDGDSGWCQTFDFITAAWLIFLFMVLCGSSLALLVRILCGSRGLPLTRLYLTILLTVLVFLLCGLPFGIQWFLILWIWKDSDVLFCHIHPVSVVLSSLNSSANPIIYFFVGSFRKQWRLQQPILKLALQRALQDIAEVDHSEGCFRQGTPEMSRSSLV
Type: functional, cell-based

| Compound | IC50 [nM] |
| --- | --- |
| N#Cc1cnn(C2(CNc3cc(C(F)(F)F)nc4ccc(Cl)cc34)CN(C(N)=O)C2)c1 | 0.1 |
| NS(=O)(=O)N1CC(CNc2cc(C(F)(F)F)nc3ccc(Br)cc23)(c2ccc(F)cc2)C1 | 0.1 |
| NS(=O)(=O)N1CC(CNc2cc(C(F)(F)F)nc3ccc(Cl)cc23)(c2ccc3ccccc3n2)C1 | 0.1 |
| Cc1csc(C2(CNc3cc(C(F)(F)F)nc4ccc(Cl)cc34)CN(S(N)(=O)=O)C2)n1 | 0.1 |

The remaining compounds from weak to strong by IC50, led by results:

| IC50 [nM] | Compound |
| --- | --- |
| 0.1 | NC(=O)N1CCC(CNc2cc(C(F)(F)F)nc3ccc(Cl)cc23)(c2ccc(F)cn2)C1 (stereo unspecified) |
| 0.1 | NS(=O)(=O)N1CCC(CNc2cc(C(F)(F)F)nc3ccc(Cl)cc23)(c2ccc(F)cn2)CC1 |
